From patent US5858667A, “Method for the enumeration of micronucleated erythrocyte populations with a single laser flow cytometer” (Litron Laboratories, priority 1996, dated 1999)
Values joined by “and” are separate entries in the source; they are usually repeats but may differ in a detail not shown here. Equal entries are not always repeated. “Also recorded” adds a separate entry of the source.

What was measured:
[1] = system: normochromatic erythrocytes; assay: Flow cytometric micronucleus assay (FITC-anti-CD71/propidium iodide), normochromatic erythrocytes, MMS-treated mice; type: in vivo, male BALB/c mice; conditions: for Average Freq. (%) MN-NCE: average of 5 mice; for Freq. (%) MN-NCE / No. MN-NCE / No. NCE: individual mouse
Procedure: (§1) Optimum flow cytometer settings are extremely important in this process. The fluorescent signals of the stained micronucleated normochromatic erythrocyte and micronucleated reticulocyte populations should be clearly resolved from those of the normochromatic erythrocyte and reticulocyte cell populations. In accordance with the method of the present invention, the analyses described herein were carried out with a single laser flow cytometer (Fac Star^PLUS ™, Becton Dickenson). The 5 W argon ion laser was tuned to provide 488 nm excitation. Cells were passed through the laser at an average rate of 2,500-8,000 erythrocytes/second. One embodiment of the invention is to use a 20μ elliptical beam that is focused at the sample stream. The results and analyses described herein were obtained with said beam. As known to those skilled in the art, different beam shapes are also acceptable.
(§2) The flow cytometer is equipped with four photomultiplier tubes (PMTs) which are used to sense forward light scatter, side light scatter, red fluorescence signals, and green fluorescence signals. Proper filters must be placed before the green and red photomultiplier tubes. In accordance with the methods of the present invention, adequate fluorescent signals can be obtained if a 520 nm long pass filter and a 555 nm short pass filter is placed before the green PMT. In accordance with the methods of the present invention, a 580 nm long pass filter in front of the red PMT is desirable. This is a preferred configuration that allows optimal fluorescence detection. However, as known to those skilled in the art, other filter sets may be acceptable. The signals received by the PMTs and the light scatter photodiode are processed by an in-line computer and cell populations of interest are quantitated (see, e.g., FIG. 1) using software conventional to the art. The data may be acquired and processed as either logarithmic or linear signals. In one configuration of the invention, log data was acquired for the forward light scatter, side scatter, as well as red and green fluorescence peak height signals.
(§3) Erythrocytes were isolated by gating on forward and side light scatter parameters. The stop mode of each analysis was reached when 500,000 total erythrocytes were interrogated. A window was set up corresponding to cells low in both fluorescence due to the labelled antibody with binding specificity for a surface marker for erythroblasts/reticulocytes (e.g., anti-CD71 antibody) and fluorescence due to the nucleic acid staining dye (e.g., propidium iodide), such as for detecting normochromatic erythrocytes in the erythrocyte population. A second gate was used to define cells low in anti-CD71 fluorescence and high in propidium iodide fluorescence, such as for detecting micronucleated normochromatic erythrocytes in the erythrocyte population. Another region corresponding to cells which were high in anti-CD71 fluorescence and low in propidium iodide fluorescence, such as for detecting reticulocytes in the erythrocyte population. A fourth region corresponding to cells which were high in both anti-CD71 fluorescence and in propidium iodide fluorescence was defined for detecting micronucleated reticulocytes in the erythrocyte population. Having defined these regions, the frequency of reticulocytes, micronucleated reticulocytes, micronucleated normochromatic erythrocytes, and normochromatic erythrocytes were automatically determined by the flow cytometry software.
(§4) Propidium iodide and FITC have been employed to simultaneously label nucleic acids and cell surface antigens in human B-cell lymphomas (Kruth et al., 1981, Cancer Res. 41:4895-4899; Montecucco et al., 1985, Basic Appl. Histochem. 29:275-2821). In the method according to the present invention the combined use of a nucleic acid staining dye, such as propidium iodide, and FITC-antibody labeling is utilized to differentially stain micronucleated reticulocytes. […]

[2] = system: reticulocytes; assay: Flow cytometric micronucleus assay (FITC-anti-CD71/propidium iodide), reticulocytes, MMS-treated mice; type: in vivo, male BALB/c mice; conditions: for Average Freq. (%) MN-RET: average of 5 mice; for Freq. (%) MN-RET / No. MN-RET / No. RET: individual mouse
Procedure: as §1, §2, §3, §4

[3] = system: micronuclei; conditions: previous observations, different methodologies; cited from earlier work
[4] = system: micronucleated polychromatic erythrocytes; conditions: administered 2 hours before clastogen exposure; cited from earlier work
[5] = 0-72 h after 100 mg MMS/kg i.p., in words

COS(C)(=O)=O [MMS, methyl methanesulfonate]
micronuclei frequency in the mature normochromatic erythrocyte population, time course [1, 5]: rise gradually over the course of the experiment; also recorded: rose slightly
Average Freq. (%) MN-NCE ([1]; 24 h after 100 mg MMS/kg i.p.): 0.26%
Freq. (%) MN-NCE ([1]; 24 h after 100 mg MMS/kg i.p.): 0.25% and 0.26% and 0.23% and 0.28%
No. MN-NCE ([1]; 24 h after 100 mg MMS/kg i.p.): 1244 and 1287 and 1145 and 1254 and 1391
No. NCE ([1]; 24 h after 100 mg MMS/kg i.p.): 490949 and 490112 and 488089 and 487462 and 490011
Average Freq. (%) MN-NCE ([1]; 40 h after 100 mg MMS/kg i.p.): 0.28%
Freq. (%) MN-NCE ([1]; 40 h after 100 mg MMS/kg i.p.): 0.29% and 0.26% and 0.24% and 0.30%
No. MN-NCE ([1]; 40 h after 100 mg MMS/kg i.p.): 1405 and 1285 and 1178 and 1445 and 1458
No. NCE ([1]; 40 h after 100 mg MMS/kg i.p.): 490511 and 485301 and 486302 and 484237 and 492350
Average Freq. (%) MN-NCE ([1]; 48 h after 100 mg MMS/kg i.p.): 0.30%
Freq. (%) MN-NCE ([1]; 48 h after 100 mg MMS/kg i.p.): 0.31% and 0.32% and 0.27%
No. MN-NCE ([1]; 48 h after 100 mg MMS/kg i.p.): 1515 and 1538 and 1298 and 1517 and 1339
No. NCE ([1]; 48 h after 100 mg MMS/kg i.p.): 487164 and 481651 and 480648 and 476364 and 490250
Average Freq. (%) MN-NCE ([1]; 72 h after 100 mg MMS/kg i.p.): 0.34%
Freq. (%) MN-NCE ([1]; 72 h after 100 mg MMS/kg i.p.): 0.34% and 0.36% and 0.35% and 0.33%
No. MN-NCE ([1]; 72 h after 100 mg MMS/kg i.p.): 1593 and 1573 and 1607 and 1628 and 1575
No. NCE ([1]; 72 h after 100 mg MMS/kg i.p.): 473052 and 462539 and 450096 and 461882 and 475141
frequency of micronucleated reticulocytes, time course [2, 5]: rise sharply over the course of the first 40 hours; also recorded: rise and fall quickly
Average Freq. (%) MN-RET ([2]; 24 h after 100 mg MMS/kg i.p.): 0.81%
Freq. (%) MN-RET ([2]; 24 h after 100 mg MMS/kg i.p.): 0.54% and 0.93% and 0.69% and 1.31% and 0.58%
No. MN-RET ([2]; 24 h after 100 mg MMS/kg i.p.): 46 and 88 and 80 and 162 and 55
No. RET ([2]; 24 h after 100 mg MMS/kg i.p.): 8531 and 9390 and 11532 and 12234 and 9391
Average Freq. (%) MN-RET ([2]; 40 h after 100 mg MMS/kg i.p.): 4.20%
Freq. (%) MN-RET ([2]; 40 h after 100 mg MMS/kg i.p.): 4.41% and 4.18% and 4.89% and 3.81% and 3.72%
No. MN-RET ([2]; 40 h after 100 mg MMS/kg i.p.): 386 and 592 and 652 and 581 and 262
No. RET ([2]; 40 h after 100 mg MMS/kg i.p.): 8373 and 13570 and 12679 and 14533 and 6785
Average Freq. (%) MN-RET ([2]; 48 h after 100 mg MMS/kg i.p.): 2.25%
Freq. (%) MN-RET ([2]; 48 h after 100 mg MMS/kg i.p.): 2.92% and 2.09% and 2.10% and 1.86% and 2.29%
No. MN-RET ([2]; 48 h after 100 mg MMS/kg i.p.): 355 and 366 and 396 and 431 and 211
No. RET ([2]; 48 h after 100 mg MMS/kg i.p.): 11794 and 17187 and 18484 and 22687 and 8990
Average Freq. (%) MN-RET ([2]; 72 h after 100 mg MMS/kg i.p.): 0.41%
Freq. (%) MN-RET ([2]; 72 h after 100 mg MMS/kg i.p.): 0.43% and 0.40% and 0.46% and 0.34%
No. MN-RET ([2]; 72 h after 100 mg MMS/kg i.p.): 112 and 147 and 224 and 150 and 82
No. RET ([2]; 72 h after 100 mg MMS/kg i.p.): 25838 and 36327 and 48913 and 36940 and 23744
time of maximum response (micronuclei formation) [3]: 36 h

chlorophyllin
effect on incidence of micronucleated polychromatic erythrocytes induced by gamma radiation [4]: reduced the incidence of micronucleated polychromatic erythrocytes
